Where no end group is shown, it is not given here.

Among the data in paper PMC9274004, “Deciphering the Molecular Interaction Between the Adhesion G Protein-Coupled Receptor ADGRV1 and its PDZ-Containing Regulator PDZD7” (Frontiers in Molecular Biosciences, 2022) are Kd values, retold here.

The assay deals with T1, PDZD7 P1P2 (81-313) (Mus musculus, UniProt E9Q9W7).
T1 construct: PDZ2ext (206-313), P1P2 (81-313); GST (followed by TEV site) (N, cleaved yes); made in house; host or cells: E. coli BL21 DE3
As to the kind of experiment: Fluorescence titration of PDZ tandem P1P2. The note with it: fluorescence titration (Trp, ex 295 nm, em 346-349 nm); P1P2 2 µM in Phosphate Buffer pH 6.6 (50 mM); error from quality of fit. The assay is classed as binding, murine. The procedure:
Fluorescence titrations were performed on a Jasco V-730 spectrometer using quartz cell 109.004F-QS (Hellma Analytics) with an optical path of 10 mm and with thick side to reduce the inner filter effect. PDZ1ext and P1P2 were prepared in Phosphate Buffer pH 6.6 (50 mM) at 6 and 2 µM respectively, while PDZ2ext was prepared in Tris HCl pH 7.5 (50 mM) at 5 µM. Variations in the quantum yield of fluorescence of tryptophans from the sample were monitored upon progressive addition of buffered ADGRV1pbm peptide. After peptide addition, the sample is homogenized by in-spectrometer magnet agitation for 30 s. The sample is left to rest for an additional 60 s before measurement. Excitation is set at 295 nm and fluorescence was measured at the maximum emission wavelength (346-349 nm) of the unbound form with a 5 nm bandwidth for both. Titration curves were fitted using the following formula: y = Fp∗p0+(Fx-Fp)∗0.5∗(R∗I0+(1-R)∗x + K-((R∗I0+(1-R)∗x + K)^2-4∗R∗(I0-x)∗x)^1/2), where p0 is the initial protein concentration, I0 the peptide stock concentration, R the p0/I0 ratio, x the volume of added peptide in µl, Fp the fluorescence of PDZ constructs, Fx the fluorescence of the complex, and K the Kd. […]
We monitored the interaction between PDZD7 constructs and a peptide (ADGRV1pbm) corresponding to the last 13 residues of ADGRV1, encompassing its PBM (sequence VELRRIPIADTHL-COOH; PBM underlined). […]

T1 sequence (E9Q9W7 81-313): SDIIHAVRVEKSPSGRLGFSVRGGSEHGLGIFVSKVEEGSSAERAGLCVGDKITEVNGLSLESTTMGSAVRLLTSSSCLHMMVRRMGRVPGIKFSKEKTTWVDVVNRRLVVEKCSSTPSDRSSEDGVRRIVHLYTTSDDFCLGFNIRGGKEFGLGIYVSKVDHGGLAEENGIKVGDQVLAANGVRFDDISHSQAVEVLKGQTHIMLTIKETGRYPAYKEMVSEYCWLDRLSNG

As to VELRRIPIADTHL [ADGRV1pbm], binding was characterised by a dissociation constant (Kd) of 1.6 ± 0.3 µM.

The term Kd denotes the constant that tells how readily two partners part at equilibrium. A lower Kd goes with a tighter complex.
